From patent US20210379158A1, “METHOD FOR PREVENTING OR TREATING HEART FAILURE BY ADMINISTERING A MEDICAMENT CONTAINING AN ANTAGONIST OF CORTICOTROPIN RELEASING HORMONE RECEPTOR 2 (CRHR2)” (RaQualia Pharma Inc., priority 2017, published 2021)
No end group written: not given here.

What was measured:
Crhr2 [1] = assay: Pressure overload-induced cardiac dysfunction (TAC) in mice, continuous infusion initiated 1 wk after TAC; assay type: in vivo, mouse
Experimental: (§1) 8-10-week-old male mice were anesthetized with 50 mg/kg sodium pentobarbital, and osmotic minipumps (Alzet) containing Ucn2 (25, 50, 100 ng/g/day; Peptide Institute) or antisauvagine-30 (100 ng/g/day; Medical & Biological Laboratories) were implanted subcutaneously in the back for 4 wk.
TAC was performed under anesthesia and intubation. The chest was opened to visualize the aortic arch. The transverse aorta was then ligated between the right innominate and left common carotid arteries against a blunted 24-G needle with a 7-0 suture. The sham procedure was identical except that the aorta was not ligated.
(§2) Transthoracic echocardiography was performed on mice anesthetized with 50 mg/kg sodium pentobarbital. The left ventricular (LV) end-systolic diameter and the LV end-diastolic diameters were measured to calculate the % LV fractional shortening (% FS) in M-mode using an Acuson Sequoia C-512 (Siemens) with a 15-MHz probe. Systolic blood pressure (SBP) was measured by tail cuff method with an automatic sphygmomanometer (BP98A; Saffron) while the mice were restrained.
(§3) Mouse plasma Ucn2 and BNP were quantified by a mouse Ucn2 ELISA kit (Yanaihara), and by a BNP Enzyme Immunoassay kit (RayBiotech Inc.), respectively, according to the manufacturer's instructions.
Tissue samples were embedded in OCT compound (Sakura Finetek) and snap-frozen in liquid nitrogen. Left ventricular myocardium sections (6 μm slices) were stained with Picro-Sirius red with standard protocols and viewed with a BX51 microscope (Olympus). Cardiac fibrosis in 20 random images was quantified in ImageJ software.
We next investigated whether treatment with the Crhr2 antagonist, antisauvagine-30 (Rühmann et al., 1998, Proc. Natl. Acad. Sci. USA. 95:15264-15269), would attenuate the progression of established cardiac hypertrophy in mice. For this, continuous antisauvagine-30 infusion was initiated 1 wk after TAC surgery (FIG. 19).

[2] = acute intravenous injection; cited from earlier work
Crhr2 [3] = assay: Continuous Ucn2 infusion through subcutaneous osmotic pump in mice for 4 wk; assay type: in vivo, mouse
Experimental: as §1, §2, §3
To examine the effect of long-term Ucn2 up-regulation in vivo, we implanted mice with osmotic pumps that release Ucn2.

Crhr2 [4] = assay: Continuous Ucn2 infusion in cardiomyocyte-specific Crhr2 knockout mice and control mice; assay type: in vivo, mouse
Excerpt: Crhr2^tm1a(KOMP)Wtsi mice on a C57BL/6 background were generated by the Knock Out Mice Program (KOMP) at the University of California Davis (Davis, Calif.) and Children's Hospital Oakland Research Institute (Oakland, Calif.). Crhr2^tm1a(KOMP)Wtsi mice were bred with mice expressing Flp recombinase to obtain Crhr2 conditional KO mice (Crhr2^flox/flox mice). Crhr2^flox/flox mice were backcrossed at least 10 times to wild-type C57BL/6 genetic background mice. Tamoxifen-inducible, cardiomyocyte-specific Crhr2 knockout mice (cmc-Crhr2-KOs) were generated by intercrossing the αMHC-CreERT2 line to Crhr2^flox/flox mice (Takefuji et al., 2012, Circulation. 126:1972-1982). Cre-mediated recombination of floxed alleles was induced with an intraperitoneal injection of 1 mg tamoxifen dissolved in 100 μl Miglyol for 5 consecutive days. Vehicle-treated mice received Miglyol only, and αMHC-CreERT2+/−-Crhr2^wt/wt mice were used as controls. Experiments were performed 2 wk after the end of induction.
as §1, §2
To examine the functional significance of Crhr2 in cardiomyocytes in vivo, we generated mice with tamoxifen-inducible cardiomyocyte-specific Crhr2 deficiency (cmc-Crhr2-KO) by mating αMHC-CreERT2 mice with Crhr2^flox/flox mice.

antisauvagine-30
plasma BNP (Crhr2 [1]; TAC mice, 100 ng/g/day infusion from 1 wk after TAC, day 35, FIG. 22): strong reduction
cardiac hypertrophy (left ventricular weight/tibia length ratio) (Crhr2 [1]; TAC mice, 100 ng/g/day infusion from 1 wk after TAC, day 35, FIG. 23): strong reduction
cardiac fibrosis (fibrosis area) (Crhr2 [1]; TAC mice, 100 ng/g/day infusion from 1 wk after TAC, day 35, FIG. 24): strong reduction
systolic blood pressure (Crhr2 [1]; TAC mice, 100 ng/g/day infusion from 1 wk after TAC, FIG. 20): without significantly affecting systolic blood pressure
cardiac output (left ventricular fractional shortening) (Crhr2 [1]; TAC mice, 100 ng/g/day infusion from 1 wk after TAC, FIG. 21): protected mice from further deterioration of cardiac output

urocortin 2 (VILSLDVPIGLLRILLEQARYKAARNQAATNAQILAHV; ends and bridges not checked; UniProt Q99ML8 73-110, looked up) [Ucn2, Ligand/agonist of Crhr2, obtained from Peptide Institute]
cardiac contraction [2]: accelerate cardiac contraction
TAC-induced cardiac dysfunction (Crhr2 [1]; 4 wk of sustained Ucn2 infusion initiating 1 wk after TAC surgery): accelerated TAC-induced cardiac dysfunction
left ventricular fractional shortening (Crhr2 [3]; 4 wk Ucn2 infusion 100 ng/g/day, FIG. 8): decrease in left ventricular fractional shortening
systolic blood pressure (Crhr2 [3]; 4 wk Ucn2 infusion 100 ng/g/day, FIG. 9): without significantly affecting systolic blood pressure
blood levels of brain natriuretic peptide (BNP) (Crhr2 [3]; 4 wk Ucn2 infusion 100 ng/g/day, FIG. 10): significantly increased
cardiac hypertrophy, left ventricular weight to tibia length ratio (Crhr2 [3]; 4 wk Ucn2 infusion 25, 50 or 100 ng/g/day, FIGS. 6 and 7): increased left ventricular weight to tibia length ratio in a dose-dependent manner
circulating Ucn2 levels (Crhr2 [3]; after 4 wk of sustained Ucn2 infusion (25, 50 or 100 ng/g/day), osmotic pump, blood, FIG. 5): elevated similar to those observed after TAC
fractional shortening decrease (Crhr2 [4]; cmc-Crhr2-KO mice, 4 wk of continuous Ucn2 infusion 100 ng/g/day, FIG. 13): significantly attenuated
Ucn2-induced hypertrophic response (left ventricular weight/tibia length ratio) (Crhr2 [4]; cmc-Crhr2 KO mice, 4 wk Ucn2 100 ng/g/day, FIG. 12): failed to show a Ucn2-induced hypertrophic response
fractional shortening (Crhr2 [4]; control mice, 4 wk of continuous Ucn2 infusion 100 ng/g/day, FIG. 13): decreased fractional shortening
